Reference: patent US20180015100A1, “COMBINATION PRODUCTS FOR THE TREATMENT OF BACTERIAL INFECTIONS AND METHODS OF PRODUCING OR DOSING OF SAME” (priority 2016, published 2018)
In brackets after ≈: the same amount, converted by molar mass. Where two headings read alike, the source gives them in different places.

Experiments:
[1] = test system: 385 Escherichia coli and 126 Klebsiella pneumoniae isolates; test: MIC, MIC50 and MIC90 by reference broth microdilution against 511 UTI/bloodstream isolates (USA and Europe 2014-2015); format: cell-based; settings: 511 isolates; for MIC90: read-out: MIC90
[2] = test system: Escherichia coli isolates with an ESBL-phenotype; test: In vitro MIC90 of a panel of approved antibiotics, US surveillance program; format: cell-based
[3] = test system: ESBL Escherichia coli isolates; test: Killing kinetics (time-kill); format: cell-based; settings: 8X MIC
[4] = test system: ESBL Klebsiella pneumoniae isolates; test: Killing kinetics (time-kill); format: cell-based; settings: 8X MIC
[5] = test system: ESBL Escherichia coli isolates; test: MIC against isolates analyzed in time-kill experiments; format: cell-based
[6] = test system: ESBL Klebsiella pneumoniae isolates; test: as above; format: cell-based
[7] = test system: E. coli clinical isolate expressing the ESBL CTX-M-15; format: in vivo, mouse; settings: 4 mg/kg, q4 hr
[8] = test system: Citrobacter freundii isolates; test: MIC of cephalosporins alone or with clavulanate/tazobactam; format: cell-based; settings: clavulanate 2:1, tazobactam 4 μg/mL
[9] = test system: Enterobacter aerogenes isolates; test: as above; format: cell-based; settings: Klebsiella aerogenes, clavulanate 2:1, tazobactam 4 μg/mL
[10] = test system: Enterobacter cloacae isolates; test: as above; format: cell-based; settings: clavulanate 2:1, tazobactam 4 μg/mL
[11] = test system: Escherichia coli isolates; test: as above; format: cell-based; settings: clavulanate 2:1, tazobactam 4 μg/mL
[12] = test system: Klebsiella oxytoca isolates; test: as above; format: cell-based; settings: clavulanate 2:1, tazobactam 4 μg/mL
[13] = test system: Klebsiella pneumoniae isolates; test: as above; format: cell-based; settings: clavulanate 2:1, tazobactam 4 μg/mL
clinical = settings: human, in vivo
Experimental: The twice daily divided dose of study drug was administered approximately 12 hours apart. All subjects randomized to placebo received placebo oral capsules that were identical to study drug capsules and given according to the same dosing schedule and same quantity of capsules as subjects randomized to receive ceftibuten and clavulanate concurrently. All SDs, as well as the first daily dose of the MD period on […] were given while the subject was fasted. […] In addition, blood samples for assessment of trough (pre-dose) concentrations were collected on day 7, day 8, day 9, and alternate days thereafter through study day 17. […] Peak concentration (Cmax), time at which Cmax was observed (Tmax), area under the concentration-time curve to infinity (AUCinf), percent coefficient of variation (% CV), elimination half-life (T1/2), apparent total clearance of the drug from plasma after oral administration (CL/F), and apparent volume of distribution during terminal phase after non-intravenous administration (Vz/F) were determined. […] Similar to above, six subjects were randomized to receive active drug and two were randomized to receive placebo. […] Safety, tolerability and PK were assessed as described above.

[14] = Escherichia coli, E. coli (n = 124), ESBL-phenotype, read-out: MIC90
[15] = E. coli (n = 124), ESBL-phenotype

With CC1(C)S[C@@H]2[C@H](/N=C/N3CCCCCC3)C(=O)N2[C@H]1C(=O)O [Mecillinam] the MIC50 [1] was 2 µg/mL (≈ 6.15 µM) and the MIC90 [1] was > 32 µg/mL.

In the case of C[C@@H](O)[C@H]1C(=O)N2C(C(=O)O)=C(S[C@@H]3CN[C@H](C(=O)N(C)C)C3)[C@H](C)[C@H]12 [Meropenem, meropenem], the MIC90 [2, 14] is reported as 0.03 µg/mL (≈ 0.0782 µM), the “Change in Log10 CFU/mL From Inoculum (0 hr)” value ([3]; AECO1156, 2 h) is reported as −3.41 Log10 CFU/mL and the “Change in Log10 CFU/mL From Inoculum (0 hr)” value ([3]; AECO1156, 4 h) is reported as −4.08 Log10 CFU/mL. The “Change in Log10 CFU/mL From Inoculum (0 hr)” value ([3]; AECO1156, 6 h) was −5.69 Log10 CFU/mL, the “Change in Log10 CFU/mL From Inoculum (0 hr)” value ([3]; AECO1156, 24 h) was −5.69 Log10 CFU/mL and the “Change in Log10 CFU/mL From Inoculum (0 hr)” value ([3]; AECO1157, 2 h) was −3.49 Log10 CFU/mL. For the same molecule, the “Change in Log10 CFU/mL From Inoculum (0 hr)” value ([3]; AECO1157, 4 h) was −4.98 Log10 CFU/mL, the “Change in Log10 CFU/mL From Inoculum (0 hr)” value ([3]; AECO1157, 6 h) was −4.38 Log10 CFU/mL and the “Change in Log10 CFU/mL From Inoculum (0 hr)” value ([3]; AECO1157, 24 h) was −5.98 Log10 CFU/mL. The “Change in Log10 CFU/mL From Inoculum (0 hr)” value ([3]; AECO1162, 2 h) was −2.91 Log10 CFU/mL, the “Change in Log10 CFU/mL From Inoculum (0 hr)” value ([3]; AECO1162, 4 h) was −3.42 Log10 CFU/mL and the “Change in Log10 CFU/mL From Inoculum (0 hr)” value ([3]; AECO1162, 6 h) was −4.39 Log10 CFU/mL. For the same molecule, the “Change in Log10 CFU/mL From Inoculum (0 hr)” value ([3]; AECO1162, 24 h) was −6.08 Log10 CFU/mL, the “Change in Log10 CFU/mL From Inoculum (0 hr)” value ([3]; AECO1166, 2 h) was −4.17 Log10 CFU/mL and the “Change in Log10 CFU/mL From Inoculum (0 hr)” value ([3]; AECO1166, 4 h) was −6.08 Log10 CFU/mL. The “Change in Log10 CFU/mL From Inoculum (0 hr)” value ([3]; AECO1166, 6 h) was −6.08 Log10 CFU/mL, the “Change in Log10 CFU/mL From Inoculum (0 hr)” value ([3]; AECO1166, 24 h) was −6.08 Log10 CFU/mL and the “Change in Log10 CFU/mL From Inoculum (0 hr)” value ([4]; AKPN1159, 2 h) was −2.64 Log10 CFU/mL. The “Change in Log10 CFU/mL From Inoculum (0 hr)” value ([4]; AKPN1159, 4 h) was −4.16 Log10 CFU/mL, the “Change in Log10 CFU/mL From Inoculum (0 hr)” value ([4]; AKPN1159, 6 h) was −4.73 Log10 CFU/mL and the “Change in Log10 CFU/mL From Inoculum (0 hr)” value ([4]; AKPN1159, 24 h) was −6.33 Log10 CFU/mL. The “Change in Log10 CFU/mL From Inoculum (0 hr)” value ([4]; AKPN1162, 2 h) was −3.01 Log10 CFU/mL, the “Change in Log10 CFU/mL From Inoculum (0 hr)” value ([4]; AKPN1162, 4 h) was −3.58 Log10 CFU/mL and the “Change in Log10 CFU/mL From Inoculum (0 hr)” value ([4]; AKPN1162, 6 h) was −3.66 Log10 CFU/mL. For the same molecule, the “Change in Log10 CFU/mL From Inoculum (0 hr)” value ([4]; AKPN1162, 24 h) was −6.48 Log10 CFU/mL, the MIC ([5]; AECO1156 (CTXM-15, TEM-OSBL)) was 0.03 µg/mL (≈ 0.0782 µM) and the MIC ([5]; AECO1157 (CTXM-15, TEM-OSBL)) was 0.03 µg/mL (≈ 0.0782 µM). It also gave an MIC ([5]; AECO1162 (CTX-M-14)) of 0.03 µg/mL (≈ 0.0782 µM), an MIC ([5]; AECO1166 (SHV-12)) of 0.016 µg/mL (≈ 0.0417 µM) and an MIC ([6]; AKP1162 (SHV-12, CTX-M-15)) of 0.06 µg/mL (≈ 0.156 µM). For the same molecule, the MIC ([6]; AKPN1159 (SHV-12)) was 0.03 µg/mL (≈ 0.0782 µM), the MIC50 [1] was 0.03 µg/mL (≈ 0.0782 µM) and the “EUCAST % I” value ([1]; EUCAST 2016 criteria) was 3.3%. For the same molecule, the MIC90 [1] was 0.12 µg/mL (≈ 0.313 µM), the “bacterial CFU, bladder” value [7] was 3.75 log10 CFU and the “bacterial CFU, kidneys” value [7] was 3.11 log10 CFU. The “bacterial CFU, urine” value [7] was 3.25 log10 CFU.

Molecule O=C1CN(/N=C/c2ccc([N+](=O)[O-])o2)C(=O)N1 [Nitrofurantoin] has an MIC50 [1] of 16 µg/mL (≈ 67.2 µM) and an MIC90 [1] of 256 µg/mL (≈ 1070 µM).

In the case of C[C@]1(Cn2ccnn2)[C@H](C(=O)O)N2C(=O)C[C@H]2S1(=O)=O [Tazobactam, tazobactam], the MIC ([8]; ACFR1034 (CTX-M-15, TEM-OSBL)) is reported as > 64 µg/mL, the MIC ([8]; ACFR1035 (CTX-M-3, TEM-OSBL)) is reported as > 64 µg/mL and the MIC ([9]; AEAE1027 (CTX-M-14)) is reported as > 64 µg/mL. For the same molecule, the MIC ([9]; AEAE1029 (CTX-M-15)) was > 64 µg/mL, the MIC ([10]; AECL1065 (CTX-M-15)) was > 64 µg/mL and the MIC ([10]; AECL1067 (CTX-M-3)) was > 64 µg/mL. For the same molecule, the MIC ([11]; AECO001 (no ESBL)) was > 64 µg/mL, the MIC ([11]; AECO1078 (CTX-M-15)) was > 64 µg/mL and the MIC ([11]; AECO1147 (CTX-M-15)) was > 64 µg/mL. The MIC ([11]; AECO1157 (CTX-M-15, TEM-OSBL)) was > 64 µg/mL, the MIC ([11]; AECO1159 (CTX-M-15)) was > 64 µg/mL and the MIC ([11]; AECO1169 (CTX-M-1, TEM-OSBL)) was > 64 µg/mL. The MIC ([11]; AECO1172 (CTX-M-14)) was > 64 µg/mL, the MIC ([12]; AKOX1005 (SHV-2, TEM-1, DHA-1)) was > 64 µg/mL and the MIC ([12]; AKOX1009 (CTX-M-15)) was > 64 µg/mL. For the same molecule, the MIC ([13]; AKPN1159 (SHV-12)) was > 64 µg/mL, the MIC ([13]; AKPN1161 (SHV-7)) was > 64 µg/mL and the MIC ([13]; AKPN1162 (CTX-M-15, SHV-12)) was > 64 µg/mL. For the same molecule, the MIC ([13]; AKPN1166 (CTX-M-14, SHV-12)) was > 64 µg/mL and the MIC ([13]; AKPN1167 (SHV-2)) was > 64 µg/mL.

CN(C)c1cc(NC(=O)CNC(C)(C)C)c(O)c2c1C[C@H]1C[C@H]3[C@H](N(C)C)C(O)=C(C(N)=O)C(=O)[C@@]3(O)C(O)=C1C2=O [Tigecycline] gave an MIC90 ([2]; Escherichia coli) of 0.25 µg/mL (≈ 0.427 µM).

For NC[C@H]1O[C@H](O[C@H]2[C@H](O)[C@@H](O[C@H]3O[C@H](CO)[C@@H](O)[C@H](N)[C@H]3O)[C@H](N)C[C@@H]2N)[C@H](N)C[C@@H]1O [Tobramycin], the MIC90 [2, 14] was > 8 µg/mL.

With NCC(=O)CCO [amino ketone metabolite of clavulanate] the “% of parent exposure” value (clinical) was “approximately 8.5%”.

Molecule Colistin has an MIC90 [2, 15] of 0.25 µg/mL.

For Gentamicin, the MIC90 [2, 15] was >8 µg/mL.
